Experimental data reported in patent publication US20130218474A1, “Benchmarks for Normal Cell Identification” (priority 2012, published 2013).
Several values for one entry are separate records, joined by “and”; a condition that tells them apart may be missing. Equal entries are not always repeated. Entries after “also recorded” stand apart in the source; their conditions may differ. Where two headings read alike, the source gives them in different places.

Columns and labels:
[1] = system: normal PBMC (lymphoid and myeloid cells); test: DNA damage response kinetics in normal PBMC; assay type: cell-based, human
[2] = system: AML patient myeloid cells; test: SCNP arm #2: cytotoxic and cytostatic impact of drugs on AML patient cells; assay type: cell-based, human; conditions: 48 hours drug culture
Source text: (§1) Peripheral blood or bone marrow samples from AML patient were collected (n=9), which had been previously ficoll separated and cryopreserved. Patient characteristics are shown Table 7. One cryovial per patient was used. Samples were thawed and centrifuged over ficoll to remove dead cells and debris.
Arm #2 asessed the cytotoxic and cytostatic impact of various drugs as single agents and in combinations (including the specific kinase inhibitors tested in arm #1). Here the cells from each donor were cultured in the presence of TPO, IL-3, SCF, and FLT3L for 2 days to drive proliferation. After 2 days the cells were then distributed into wells containing various drugs, wherein the cells were cultured for 48 hours. The cultures were fixed, permeabilized, and stained with a cocktail of antibodies to measure complete cell death, apoptosis, S/G2 phase, M-Phase, and DNA damage. These readouts were also obstained from samples cultured separately with individual growth factors (no drugs) for four days.

[3] = Plasma pharmacokinetics in patients or volunteers (values collected in Table 1); conditions: human, in vivo
p-S6 = conditions: 10 nM in vitro; cited from earlier work
mantle cell line (Jeko) = conditions: 10 nM in vitro; cited from earlier work
[4] = cited from earlier work
[5] = human, in vivo; cited from earlier work
[6] = system: AML patient sample #1910-017 cells; test: SCNP arm #1: modulated signaling in AML patient cells with and without kinase inhibitors; assay type: cell-based, human; conditions: subject #1910-017
Description: as §1
Arm #1 assessed basal and modulated signaling in the JAK/STAT, PI3K/mTor, and MEK/ERK pathways in the presence and absence of specific kinase inhibitors. Kinase inhibitors were added […]before the addition of the signaling stimulus. Signaling was induced by individual addition of stem cell factor, Flt3 ligand, G-CSF, IL-3, or thrombopoietin (TPO) for a short period of time (5-15 min). Cells were then fixed, permeabilized, and stained with a cocktail of cell surface and phospho-specific antibodies to measure signaling in multiple cell types. Signaling data is calculated in each cell type using a fold-change metric comparing each condition to its basal state: example: (stimulated^+/−inhibitor)/(unstimulated). Also, cells with an apoptotic phenotype were excluded from the signaling analysis by gating.

A2780 = conditions: cited from earlier work
PC3 = conditions: read-out: inhibition of PC3 cancer cell proliferation (IC50); cited from earlier work
MDA-MB-361 = conditions: read-out: inhibition of MDA-MB-361 cancer cell proliferation (IC50); cited from earlier work
[7] = system: pS6 in paired tumor biopsies; conditions: patients treated at 80 mg and higher; cited from earlier work
[8] = system: pAKT levels assayed in PRP; conditions: patients treated at 80 mg and higher; cited from earlier work
[9] = system: tumor FDG avidity, CA-125; conditions: cited from earlier work
[10] = system: pAKT and pS6 on H460 cell line; conditions: cited from earlier work
[11] = system: tumour xenografts that have abnormal PI3K signalling; conditions: loss of PTEN function or gain-of-function PI3K mutations; cited from earlier work
[12] = system: PMA induced pERK in lymphocytes from PBMCs; test: PMA induced pERK in lymphocytes from PBMCs; assay type: cell-based
[13] = system: pERK in blood lymphocytes; conditions: ~1000 ng/ml plasma conc.; cited from earlier work
[14] = system: anti-IgM_pAKT induced PBMC; test: anti-IgM induced pAKT in PBMC; assay type: cell-based
GM-CSF_pSTAT5 [15] = conditions: 1000 nM
GM-CSF_pSTAT5 [16] = test: cells; conditions: read-out: GM-CSF_pSTAT5 inhibition IC50
[17] = system: pAKT (same cells, same stim); test: pAKT inhibition in PBMCs (monos), GM-CSF; assay type: cell-based
[18] = system: Ba/F3-wt (+IL-3, proliferation) JAK2 wt; conditions: read-out: Reported activity Ba/F3-wt (+IL-3, proliferation) JAK2 wt; cited from earlier work
xenograft model = conditions: low doses; cited from earlier work
proteome activity = conditions: 10 nM; cited from earlier work
AML cell lines = conditions: read-out: IC90, proliferation of AML cell lines; cited from earlier work

gemtuzumab ozogamicin [Mylotarg]
kinetics in Myeloid versus Lymphoid cells [1]: faster kinetics in Myeloid compared to Lymphoid cells | time by which induction of p-ATM, p-Chk2 is seen ([1]; Myeloid cells): ≤ 2 h

Nc1ccn([C@@H]2O[C@H](CO)[C@@H](O)[C@@H]2O)c(=O)n1 [AraC, Cytarabine]
drug induced apoptosis / cell death of patient myeloid cells [2]: resisted apoptosis

Cc1ccc(NC(=O)c2ccc(CN3CCN(C)CC3)cc2)cc1Nc1nccc(-c2cccnc2)n1 [Imatinib]
assumed trough [3]: 1000 ng/ml and 2 μM

CCNC(=O)c1noc(-c2cc(C(C)C)c(O)cc2O)c1-c1ccc(CN2CCOCC2)cc1 [NVP-AUY922]
drug induced apoptosis / cell death of patient myeloid cells [2]: effective at inducing apoptosis

CO[C@H]1C[C@@H]2CC[C@@H](C)[C@@](O)(O2)C(=O)C(=O)N2CCCC[C@H]2C(=O)O[C@H]([C@H](C)C[C@@H]2CC[C@@H](OCCO)[C@H](OC)C2)CC(=O)[C@H](C)/C=C(\C)[C@@H](O)[C@@H](OC)C(=O)[C@H](C)C[C@H](C)/C=C/C=C/C=C/1C [Everolimus]
inhibition of p-S6 (p-S6): inhibit p-S6 completely | effect on proliferation of mantle cell line (Jeko) (mantle cell line (Jeko)): inhibit proliferation | Cmax ([4]; 10 mg/d): 61 ng/m1 and 63 nM | trough ([4]; 10 mg/d): 17 ng/m1 and 17.7 nM | trough ([4]; 50 mg/wk): lng/ml (~1 nM). [J Clin Oncol 26: 1603-1610. 2008]. A 10 nM dose

Cn1nnc2c(C(N)=O)ncn2c1=O [Temozolomide]
T½ ([4]; human, in vivo): 1.67 h | plasma concentration (Cmax) corresponding to 200 ng/m2/day ([4]; human, in vivo): 9300 ng/mL | Cmax ([4]; read-out: plasma concentration (Cmax) corresponding to 200 ng/m2/day, human, in vivo): 47.9 µM | Adult MTD [5]: glioblastoma multiforme patients. Adult MTD = 200 ng/m2/day

Nc1ncn([C@H]2C[C@H](O)[C@@H](CO)O2)c(=O)n1 [Decitabine]
Cmax ([4]; 15 mg/m2 IV over 3 hrs, every 8 hrs, for 3 days): 0.3 to 1.6 µM

CS(=O)(=O)N1CCN(Cc2cc3nc(-c4cccc5[nH]ncc45)nc(N4CCOCC4)c3s2)CC1 [GDC-0941]
inhibition of SCF induced p-AKT [6]: partial inhibition | inhibition of SCF induced p-S6 [6]: partial inhibition | IC50 (A2780): 140 nM | IC50 (PC3): 280 nM | IC50 (MDA-MB-361): 720 nM | decreases in pS6 staining in paired tumor biopsies [7]: Decreases in pS6 staining of >50% can occur in paired tumor | decreases in pAKT levels assayed in PRP [8]: biopsies in addition to decreases of >90% in pAKT levels assayed | reductions in mean SUVmax (tumor FDG avidity on PET scan) ([9]; 3 patients treated at ≧100 mg): GDC-0941 with reductions (≧30% in mean SUVmax) in tumor | decrease in CA-125 ([9]; ovarian cancer patient): FDG avidity observed on PET scan and an ~80% decrease in CA- | mean Cmax and AUCinf with dose ([4]; human, in vivo): display dose-proportional increases in mean Cmax and AUCinf.

Cn1c(=O)n(-c2ccc(C(C)(C)C#N)cc2)c2c3cc(-c4cnc5ccccc5c4)ccc3ncc21 [BEZ235]
inhibition of SCF induced p-AKT [6]: complete inhibition | inhibition of SCF induced p-S6 [6]: partial inhibition | IC50 ([10]; read-out: pAKT 1050): 10 nM | IC50 ([10]; read-out: pS6 1050): 50 nM | activity against tumour xenografts [11]: show that BEZ235 has strong anti-proliferative activity against

Cn1cnc2c(F)c(Nc3ccc(Br)cc3Cl)c(C(=O)NOCCO)cc21 [AZD6244]
inhibition at 1 µM ([12]; 1 μM in vitro, read-out: PMA induced pERK inhibited): 85 to 95% | IC50 ([12]; lymphocytes from PBMCs): ~100 nM | inhibition of SCF induced p-AKT [6]: no inhibition | inhibition of SCF induced p-S6 [6]: partial inhibition | inhibition of SCF-PERK [6]: complete inhibition | pERK inhibition (PD effect) [13]: 11u-post dose. PD effects of ~80% pERK inhibition can be seen at

Nc1ncn([C@@H]2O[C@H](CO)[C@@H](O)[C@H]2O)c(=O)n1 [Azacitidine]
Cmax ([4]; human, in vivo): 1.42 to 4.72 µM

CC[C@H](Nc1ncnc2[nH]cnc12)c1nc2cccc(F)c2c(=O)n1-c1ccccc1 [CAL-101]
block of anti-IgM induced pAKT ([14]; 40 nM): blocked ~90%. Ref: Herman, Sarah EM et al. Blood. Jun. 3, | IC50 ([14]; anti-IgM induced pAKT, PBMC, read-out: Nodality IC50): ~10 nM | mean volume of distribution ([4]; human, in vivo): 57.7 L | steady-state trough plasma concentrations above the EC50 for the in vitro whole-blood assay ([4]; human, in vivo): concentrations that are >10-fold above the EC50 for the in vitro | t1/2 ([4]; human, in vivo): ~8 h

N#CC[C@H](C1CCCC1)n1cc(-c2ncnc3[nH]ccc23)cn1 [INCB018424]
inhibition of GM-CSF_pSTAT5 (GM-CSF_pSTAT5 [15]): Jan 2011.) 1000 nM can completely inhibit GM-CSF_pSTAT5 | IC50 (GM-CSF_pSTAT5 [16]): 215 nM | Cmax ([4]; 100 mg 24 h): 4.78 µM

N#CCNC(=O)c1ccc(-c2ccnc(Nc3ccc(N4CCOCC4)cc3)n2)cc1 [CYT387]
IC50 [17]: 129 nM | IC90 [17]: ~1000 nM | IC50 [18]: 1420 nM

O=C(c1cc(Cc2n[nH]c(=O)c3ccccc23)ccc1F)N1CCN(C(=O)C2CC2)CC1 [AZD2281, Olaparib]
Cmax (maximum plasma concentration) ([4]; at MTD): ~6000 ng/mL | Cmax ([4]; read-out: Cmax (maximum plasma concentration), at MTD): 13.8 µM

CC(C)(C)c1cc(NC(=O)Nc2ccc(-c3cn4c(n3)sc3cc(OCCN5CCOCC5)ccc34)cc2)no1 [AC220]
effect in xenograft model (xenograft model): tumor regression in a xenograft model at low doses. Ref: | half-life ([4]; human, in vivo): AC220 half-life can be 2.5 days, exhibiting minimal peak and

CC(C)C[C@H](NC(=O)[C@H](Cc1ccccc1)NC(=O)c1cnccn1)B(O)O [Bortezomib]
drug induced apoptosis / cell death of patient myeloid cells [2]: effective at inducing apoptosis; also recorded: induced considerable levels of cell death and cytostasis | effect on proteome activity (proteome activity): blocks proteome activity [BLOOD, 16 DECEMBER 2010 | IC90 (AML cell lines): 10 to 50 nM | Cmax (prescribing info) ([4]; human, in vivo): 112 ng/m1 | Cmax ([4]; read-out: Cmax (prescribing info), human, in vivo): 0.291 µM

C[C@@H]1CCN(C(=O)CC#N)C[C@@H]1N(C)c1ncnc2[nH]ccc12 [CP690550]
effect on high basal level of p-STAT5 signaling [6]: inhibited | inhibition of IL-3 signaling [6]: complete inhibition | inhibition of TPO signaling [6]: partial inhibition | T½ ([4]; human, in vivo, 30 mg): 2.6 h
